In brackets after ≈: the same amount, converted by molar mass. Several values for one entry are separate records, joined by “and”; a condition that tells them apart may be missing. Equal entries are not always repeated. Where two headings read alike, the source gives them in different places. Marks after values point to notes of the source that are not given here.
Key:
[1] = system: B. pseudomallei strain K96243; design: species or system Burkholderia pseudomallei; conditions: in vivo
[2] = system: Pseudomonas aeruginosa ATCC 27853; test: microbe, parasite or virus in culture; assay type: cell-based
[3] = system: Burkholderia pseudomallei; test: microbe, parasite or virus in culture; assay type: cell-based
[4] = system: Staphylococcus aureus ATCC 29213; test: microbe, parasite or virus in culture; assay type: cell-based
[5] = system: Escherichia coli ATCC 25922; test: microbe, parasite or virus in culture; assay type: cell-based
biothreat pathogens = assay type: cell-based
[6] = mouse, in vivo
[7] = mouse, in vivo; remark: listed apart in the source
[8] = system: Escherichia coli, Klebsiella pneumoniae, and Pseudomonas aeruginosa; conditions: cited from earlier work

SMILES: CC(C)(O/N=C(\C(=O)N[C@@H]1C(=O)N2C(C(=O)[O-])=C(C[n+]3ccccc3)CS[C@H]12)c1csc(N)n1)C(=O)O [Ceftazidime, ceftazidime, reference compound]
- Survival log-rank (Mantel–Cox) test P [1]: <0.0001^a
- day average body weight started to decline again [1]: 11 days
- day mean body weight began to recover [1]: > 5 days
- survival at the end of the 29-day observation phase [1]: 20%
- survival during the treatment phase [1]: 70%
- MIC ([2]; Pseudomonas aeruginosa, ATCC27853): 1 µg/mL (≈ 1.83 µM)
- MIC50 [3]: 2 µg/mL (≈ 3.66 µM)
- MIC90 [3]: 8 µg/mL (≈ 14.6 µM)
- MIC ([3]; NCTC4845): 2 µg/mL (≈ 3.66 µM)
- MIC ([4]; Staphylococcus aureus, ATCC29213): 8 µg/mL (≈ 14.6 µM)
- MIC ([5]; Escherichia coli, ATCC25922): 0.12 µg/mL (≈ 0.22 µM)

SMILES: C[C@@](O)(C(F)F)[C@H](NC(=O)c1ccc(C#CC#CC2CC2)cc1)C(=O)NO [LPC-233]
- MIC90 values for biothreat pathogens, folds lower than previous compounds such as ACHN-975 (biothreat pathogens): 4–8 folds
- P, rescue of mice from infection in comparison with the vehicle [1]: < 0.0001
- average body weight after recovery [1]: maintained a steady average weight to the end of the study
- bacterial burden in the lungs at study termination compared to ceftazidime-treated animals [1]: reduction of CFUs in the lungs
- day average body weight declined again [1]: 15 days and 25 days
- day mean body weight began to recover (turning point) [1]: 4 days and 2 days
- final survival rate at the end of the observation period [1]: 60% and 80% and 90%
- median time to death [1]: 6.3 days
- recovery of average body weight [1]: did not recover
- survival [1]: did not support survival
- survival during the treatment phase [1]: 100%
- P range, survival/times to death versus the ceftazidime group ([1]; 30 mg/kg): 0.001–0.05
- time following the last dose without deaths ([1]; 30 mg/kg): 15 days
- Survival log-rank (Mantel–Cox) test P ([1]; 90 mg/kg): 0.5
- Survival log-rank (Mantel–Cox) test P ([1]; ip, 90 mg/kg): <0.0001^a and 0.009^a
- Survival log-rank (Mantel–Cox) test P ([1]; po, 10 mg/kg): <0.0001^a and 0.008^a
- Survival log-rank (Mantel–Cox) test P ([1]; po, 30 mg/kg): <0.0001^a and 0.05^a
- Survival log-rank (Mantel–Cox) test P ([1]; po, 90 mg/kg): <0.0001^a and 0.001^a
- concentration of the drug in ELF samples ([6]; 30 mg/kg): 100 to 400 ng/mL
- increase in AUC, 100 mg/kg IP compared to oral 100 mg/kg ([6]; 100 mg/kg): 2 fold
- increase in Cmax, 100 mg/kg IP compared to oral 100 mg/kg ([6]; 100 mg/kg): 2 fold
- Inf fT > MIC (free time above MIC) ([6]; ip, 100 mg/kg): ≥6 h
- Inf fT > MIC (free time above MIC) ([6]; po, 10 mg/kg): ≥6 h
- Inf fT > MIC (free time above MIC) ([6]; po, 30 mg/kg): ≥6 h
- Inf fT > MIC (free time above MIC) ([6]; po, 100 mg/kg): ≥6 h
- MIC [2]: 0.25 µg/mL (≈ 0.664 µM)
- Clearance [7]: 14.7 mL/min/kg
- period plasma concentration remained above MIC90 [7]: ≥ 24 h
- AUCELF (0–48 h) ([7]; 100 mg/kg): 334.6 µg·h/mL
- AUCplasma (0–48 h) ([7]; 100 mg/kg): 398.6 µg·h/mL
- ELF penetration (AUCELF/AUCplasma, 0–48 h) ([7]; 100 mg/kg): 83.9%
- MIC [4]: >16 µg/mL
- MIC [5]: ≤0.008 µg/mL
- predicted MIC shift based on plasma protein unbound fraction [8]: ~ 30 fold
- shift of MIC values in the presence of 50% mouse plasma [8]: 4–9 fold
